Results as given in patent US20260256925A1, “INDAZOLE DERIVATIVES AS ESTROGEN RECEPTOR DEGRADERS” (REGENTS OF THE UNIVERSITY OF MICHIGAN, priority 2022, published 2026).

What was measured:
ER = target: T1, ER (Homo sapiens, UniProt P03372); test: In-cell western blot analysis, relative ER percentage (compounds B1-B126); assay type: cell-based; details: ER degradation, 16 hours, read-out: ICW DC50
T1 construct: endogenous in cells; probably T47D or MCF-7
T1 sequence (P03372 1-595): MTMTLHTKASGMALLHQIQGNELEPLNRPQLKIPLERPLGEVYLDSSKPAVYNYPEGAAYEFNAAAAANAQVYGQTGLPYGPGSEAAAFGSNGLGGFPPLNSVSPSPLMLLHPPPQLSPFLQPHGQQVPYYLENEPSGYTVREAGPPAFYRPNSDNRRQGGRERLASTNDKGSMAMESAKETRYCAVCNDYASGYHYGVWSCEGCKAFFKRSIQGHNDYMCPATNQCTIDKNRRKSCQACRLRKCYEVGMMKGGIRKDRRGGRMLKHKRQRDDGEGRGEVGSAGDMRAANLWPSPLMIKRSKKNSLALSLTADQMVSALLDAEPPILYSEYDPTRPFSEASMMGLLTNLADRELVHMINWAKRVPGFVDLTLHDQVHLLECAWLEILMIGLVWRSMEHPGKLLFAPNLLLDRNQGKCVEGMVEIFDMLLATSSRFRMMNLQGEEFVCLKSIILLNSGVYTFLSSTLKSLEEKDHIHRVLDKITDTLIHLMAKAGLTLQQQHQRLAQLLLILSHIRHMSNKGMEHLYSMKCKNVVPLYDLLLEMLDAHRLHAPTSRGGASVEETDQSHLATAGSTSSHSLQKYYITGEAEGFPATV
Method in brief: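 Cells seeded at 40,000 or 10,000 per well overnight were treated with compound (final 0.5% DMSO) for 16 hours, then fixed with formaldehyde. ER was detected with primary antibodies and anti-rabbit-680/anti-mouse-800 secondaries on a CLX reader. Signal is expressed relative to untreated and DMSO wells set as 100%.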

[1] = Cell growth assay, WST-8 (compounds B1-B126); assay type: cell-based; details: 96 h; T47D cell line, WST-8, 4 days; read-out: Cell growth inhibition in T47D cell line IC50
Method: Cell Growth Assay. The cells are seeded at certain concentration (e.g., at 1500/well) in multi-well plates overnight. Cells are subsequently treated with the compounds. A certain period of time (e.g., 4 days) after the compound treatment, 10% WST-8 reagent is added to the culture medium and incubate under certain condiction (e.g., in a CO2 incubator at 37° C. for 2.5 hours). The absorbance is measured on each sample using a microplate reader at certain wavelength (e.g., 450 nm). The relative absorbance is calculated against the vehicle control from three individually repeats.
Cell Growth Assay. The cells were seeded at 1500/well in 96 well plates overnight. One day after the seeding, they were treated with indicated doses of compounds respectively. 4 days after the compound treatment, 10% WST-8 reagent was added to the culture medium and incubate in a CO2 incubator at 37° C. for 2.5 hours. Before reading, the plate was mixed gently on an orbital shaker for one minute to ensure homogeneous distribution of color. The absorbance was measured of each sample using a microplate reader at a wavelength of 450 nm. The relative absorbance was calculated against the vehicle control from three individually repeats.

SMILES	DC50 (ER) [nM]	IC50 [1] [nM]
C[C@@H]1Cc2c(ccc3[nH]ncc23)[C@@H](c2ccc(N3CCC4(CC3)CC(CN3CCN5c6ccc(C(=O)N[C@H]7CCC(=O)NC7=O)nc6OC[C@H]5C3)C4)cn2)N1CC(F)(F)F [Compound B89, (R)-N-((S)-2,6-dioxopiperidin-3-yl)-3-((7-(6-((6S,8R)-8-methyl-7-(2,2,2-trifluoroethyl)-6,7,8,9-tetrahydro-3H-pyrazolo[4,3-f]isoquinolin-6-yl)pyridin-3-yl)-7-azaspiro[3.5]nonan-2-yl)methyl)-1,2,3,4,4a,5-hexahydropyrazino[1,2-d]pyrido[2,3-b][1,4]oxazine-8-carboxamide]	> 100	> 10
C[C@@H]1Cc2c(ccc3[nH]ncc23)[C@@H](c2ccc(N3CCC4(CCN(CC(=O)N5Cc6cc7c(cc6C5)C(=O)N(C5CCC(=O)NC5=O)C7)CC4)CC3)cn2)N1CC(F)(F)F (stereo partly drawn) [Compound B76, 3-(6-(2-(9-(6-((6S,8R)-8-methyl-7-(2,2,2-trifluoroethyl)-6,7,8,9-tetrahydro-3H-pyrazolo[4,3-f]isoquinolin-6-yl)pyridin-3-yl)-3,9-diazaspiro[5.5]undecan-3-yl)acetyl)-1-oxo-3,5,6,7-tetrahydropyrrolo[3,4-f]isoindol-2(1H)-yl)piperidine-2,6-dione]	< 10	1 to 10
C[C@@H]1Cc2c(ccc3[nH]ncc23)[C@@H](c2c(F)cc(N3CCC4(CCN(C(=O)CN5CCN6c7cc8c(cc7OC[C@@H]6C5)C(=O)N(C5CCC(=O)NC5=O)C8)CC4)C3)cc2F)N1CC(F)F (stereo partly drawn) [Compound B23, 3-((S)-3-(2-(2-(4-((6S,8R)-7-(2,2-difluoroethyl)-8-methyl-6,7,8,9-tetrahydro-3H-pyrazolo[4,3-f]isoquinolin-6-yl)-3,5-difluorophenyl)-2,8-diazaspiro[4.5]decan-8-yl)-2-oxoethyl)-8-oxo-1,2,3,4,4a,5,8,10-octahydro-9H-pyrazino[1′,2′:4,5][1,4]oxazino[2,3-f]isoindol-9-yl)piperidine-2,6-dione]	< 10	< 1
COc1cc(N2CCC3(CC2)CC(CN2CCN4c5cc6c(cc5OC[C@H]4C2)C(=O)N(C2CCC(=O)NC2=O)C6)C3)ccc1[C@@H]1c2ccc3[nH]ncc3c2C[C@@H](C)N1CC(F)F (stereo partly drawn) [Compound B55, 3-((R)-3-((7-(4-((6S,8R)-7-(2,2-difluoroethyl)-8-methyl-6,7,8,9-tetrahydro-3H-pyrazolo[4,3-f]isoquinolin-6-yl)-3-methoxyphenyl)-7-azaspiro[3.5]nonan-2-yl)methyl)-8-oxo-1,2,3,4,4a,5,8,10-octahydro-9H-pyrazino[1′,2′:4,5][1,4]oxazino[2,3-f]isoindol-9-yl)piperidine-2,6-dione]	> 100	1 to 10
C[C@@H]1Cc2c(ccc3[nH]ncc23)[C@@H](c2ccc(N3CCC4(CCC(CN5CCN6c7ccc8c(c7OCC6C5)CN([C@H]5CCC(=O)NC5=O)C8=O)CO4)CC3)nn2)N1CC(F)(F)F (stereo partly drawn) [Compound B127, (3S)-3-(7-((9-(6-((6S,8R)-8-methyl-7-(2,2,2-trifluoroethyl)-6,7,8,9-tetrahydro-3H-pyrazolo[4,3-f]isoquinolin-6-yl)pyridazin-3-yl)-1-oxa-9-azaspiro[5.5]undecan-3-yl)methyl)-1-oxo-1,3,5,5a,6,7,8,9-octahydro-2H-pyrazino[1′,2′:4,5][1,4]oxazino[2,3-e]isoindol-2-yl)piperidine-2,6-dione]	< 10	< 1
C[C@@H]1Cc2c(ccc3[nH]ncc23)[C@@H](c2ccc(N3CCC(CN4CCC5(CC4)COc4c(ccc6c4CN([C@H]4CCC(=O)NC4=O)C6=O)O5)CC3)cn2)N1CC(F)(F)F [Compound B119, (S)-3-(1-((1-(6-((6S,8R)-8-methyl-7-(2,2,2-trifluoroethyl)-6,7,8,9-tetrahydro-3H-pyrazolo[4,3-f]isoquinolin-6-yl)pyridin-3-yl)piperidin-4-yl)mcthyl)-7′-oxo-7′,9′-dihydro-2′H,8′H-spiro[piperidine-4,3′-[1,4]dioxino[2,3-e]isoindol]-8′-yl)piperidine-2,6-dione]	10 to 100	< 1
C[C@@H]1Cc2c(ccc3[nH]ncc23)[C@@H](c2c(F)cc(N3CCC(CN4CCN5c6cc7c(cc6N(C)C[C@@H]5C4)C(=O)N(C4CCC(=O)NC4=O)C7)CC3)cc2F)N1CC(F)F (stereo partly drawn) [Compound B29, 3-((S)-3-((1-(4-((6S,8R)-7-(2,2-difluoroethyl)-8-methyl-6,7,8,9-tetrahydro-3H-pyrazolo[4,3-f]isoquinolin-6-yl)-3,5-difluorophenyl)piperidin-4-yl)methyl)-6-methyl-8-oxo-2,3,4,4a,5,6,8,10-octahydropyrazino[1,2-a]pyrrolo[3,4-g]quinoxalin-9(1H)-yl)piperidine-2,6-dione]	< 10	< 1
COc1cc(N2CCC3(CC2)CC(CN2CCN4c5cc6c(cc5OC[C@@H]4C2)C(=O)N(C2CCC(=O)NC2=O)C6)CO3)ccc1[C@@H]1c2ccc3[nH]ncc3c2C[C@@H](C)N1CC(F)F (stereo partly drawn) [Compound B79, 3-((4aS)-3-((8-(4-((6S,8R)-7-(2,2-difluoroethyl)-8-methyl-6,7,8,9-tetrahydro-3H-pyrazolo[4,3-f]isoquinolin-6-yl)-3-methoxyphenyl)-1-oxa-8-azaspiro[4.5]decan-3-yl)methyl)-8-oxo-1,2,3,4,4a,5,8,10-octahydro-9H-pyrazino[1′,2′:4,5][1,4]oxazino[2,3-f]isoindol-9-yl)piperidine-2,6-dione]	< 10	< 1
C[C@@H]1Cc2c(ccc3[nH]ncc23)[C@@H](c2c(F)cc(N3CCN(CC(=O)N4CCN5c6cc7c(cc6OC[C@@H]5C4)C(=O)N(C4CCC(=O)NC4=O)C7)CC3)cc2F)N1CC(F)F (stereo partly drawn) [Compound B32, 3-((S)-3-(2-(4-(4-((6S,8R)-7-(2,2-difluoroethyl)-8-methyl-6,7,8,9-tetrahydro-3H-pyrazolo[4,3-f]isoquinolin-6-yl)-3,5-difluorophenyl)pipcrazin-1-yl)acetyl)-8-oxo-1,2,3,4,4a,5,8,10-octahydro-9H-pyrazino[1′,2′:4,5][1,4]oxazino[2,3-f]isoindol-9-yl)piperidine-2,6-dione]	< 10	< 1
C[C@@H]1Cc2c(ccc3[nH]ncc23)[C@@H](c2c(F)cc(N3CC4(CCN(C(=O)CN5CCN6c7cc8c(cc7OC[C@@H]6C5)C(=O)N(C5CCC(=O)NC5=O)C8)CC4)C3)cc2F)N1CC(F)F (stereo partly drawn) [Compound B22, 3-((S)-3-(2-(2-(4-((6S,8R)-7-(2,2-difluoroethyl)-8-methyl-6,7,8,9-tetrahydro-3H-pyrazolo[4,3-f]isoquinolin-6-yl)-3,5-difluorophenyl)-2,7-diazaspiro[3.5]nonan-7-yl)-2-oxoethyl)-8-oxo-1,2,3,4,4a,5,8,10-octahydro-9H-pyrazino[1′,2′:4,5][1,4]oxazino[2,3-f]isoindol-9-yl)piperidine-2,6-dione]	< 10	< 1
C[C@@H]1Cc2c(ccc3[nH]ncc23)[C@@H](c2ccc(N3CC4(CCC(CN5CCN6c7cc8c(cc7N(C)C[C@@H]6C5)C(=O)N(C5CCC(=O)NC5=O)C8)CC4)C3)cn2)N1CC(F)(F)F (stereo partly drawn) [Compound B59, 3-((S)-6-methyl-3-((2-(6-((6S,8R)-8-methyl-7-(2,2,2-trifluoroethyl)-6,7,8,9-tetrahydro-3H-pyrazolo[4,3-f]isoquinolin-6-yl)pyridin-3-yl)-2-azaspiro[3.5]nonan-7-yl)methyl)-8-oxo-2,3,4,4a,5,6,8,10-octahydropyrazino[1,2-a]pyrrolo[3,4-g]quinoxalin-9(1H)-yl)piperidine-2,6-dione]	< 10	1 to 10
